The target in the assay is T1, human FSH receptor (Homo sapiens, UniProt P23945).
T1 construct: expressed in transfected cells; host or cells: Chinese Hamster Ovary cells (K-1; ATCC), line rhFSHR-cLUC
T1 sequence (P23945 18-695): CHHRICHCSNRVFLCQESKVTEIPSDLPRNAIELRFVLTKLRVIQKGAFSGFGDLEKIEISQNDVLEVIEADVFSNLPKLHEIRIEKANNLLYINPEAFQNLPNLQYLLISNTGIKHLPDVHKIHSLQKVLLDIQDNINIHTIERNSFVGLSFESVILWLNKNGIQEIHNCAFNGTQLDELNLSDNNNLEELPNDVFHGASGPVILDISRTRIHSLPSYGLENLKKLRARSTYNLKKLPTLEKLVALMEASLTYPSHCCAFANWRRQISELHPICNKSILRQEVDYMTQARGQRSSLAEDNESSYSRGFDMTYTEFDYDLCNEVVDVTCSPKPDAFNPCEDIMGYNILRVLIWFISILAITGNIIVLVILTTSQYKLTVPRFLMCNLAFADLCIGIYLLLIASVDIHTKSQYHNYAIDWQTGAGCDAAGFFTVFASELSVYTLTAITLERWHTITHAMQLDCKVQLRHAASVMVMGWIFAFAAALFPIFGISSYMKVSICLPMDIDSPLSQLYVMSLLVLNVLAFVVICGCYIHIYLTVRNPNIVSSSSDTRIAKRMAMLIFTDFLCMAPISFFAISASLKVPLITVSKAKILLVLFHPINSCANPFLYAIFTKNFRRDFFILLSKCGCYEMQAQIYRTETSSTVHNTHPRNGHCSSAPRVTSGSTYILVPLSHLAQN
As to the kind of experiment: hFSHR CHO cAMP assay (rhFSHR-cLUC cells, FSH-stimulated cAMP, radioimmunoassay). The class given is cell-based. As to conditions: inhibition of cAMP produced by EC70 dose of FSH (4.85 nM); maximum concentration 50 μM. The text has this:
Minimum Essential Medium-Alpha (MEM-alpha), fetal bovine serum (FBS), penicillin, streptomycin, geneticin, trypsin-EDTA, Hanks' Balanced Salt Solution (no Calcium chloride, Magnesium chloride, Magnesium sulfate, or phenol red; Ca-Mg free HBSS) were purchased from Gibco BRL (Gaithersburg, Md.). The cells used for the FSH bioassay (rhFSHR-cLUC) were Chinese Hamster Ovary cells (K-1; ATCC) stably transformed with human FSH receptor (pSVK-FSHr) and a cAMP luciferase reporter gene (responsive CGα-180LUC). Follicle Stimulating Hormone (Metrodin; Fertinex) was purchased from Serono, Ltd. (Norwell, Mass.).
The rhFSHR-cLUC cell cultures were maintained in MEM-Alpha supplemented with 10% heat-inactivated FBS (HIFBS), 100 U/ml penicillin, 100 μg/mL streptomycin, and included 0.1 g/L geneticin for stable cell selection.
Forty-eight hours after the cells were plated in sterile 96-well culture plates (Corning, Corning, N.Y.) the spent media was removed and 50 μl assay media (modified growth media with 2% HIFBS) containing 2 mM IBMX (3-isobutyl-1-methyl-xanthine) was added to the cells. Compounds (25 μl) in the appropriate concentration were added followed 5 minutes later by an EC70 dose of FSH (25 μl; 160 ng/ml; 4.85 nM). After 10 minutes @ 22.5° C. (room temperature) the reaction was terminated by addition of 25 μL 0.5 N hydrochloric acid to each well. The amount of cAMP produced was measured by radioimmunoassay in a FlashPlate (DuPont, Boston, Mass.). To each flash plate 60 μL flash plate buffer was added followed by 40 μL acidified cell sample or cAMP standard, followed with the addition of 100 μl ^125l-cAMP trace. The FlashPlates were sealed, incubated overnight @ room temperature, and counted in a Packard TopCount (Packard Instrument Co., Meriden, Conn.). The cAMP radioimmunoassay results were calculated using DPM conversion and log-logit transformation of % binding (Excel program).
Test compounds were solubilized in 30% dimethyl sulfoxide (DMSO) at a concentration of 10 mM before diluting to appropriate concentrations in assay medium. The final DMSO concentration in the treated cells and in the control cells was 0.75%.
For individual experiments, a set of samples were tested including a vehicle control (assay buffer), a reference compound (hFSH) at a range of concentrations designed to elicit a minimal to maximal response, and several concentrations of test compounds together with an EC70 concentration of standard (hFSH challenge). Each compound was performed in duplicates for the primary evaluation and quadruplicates for the dose-ranging experiments. The cAMP radioimmunoassay raw data (pmol) were calculated to provide average pmol cAMP produced/ml and the percent inhibition was calculated as shown below.
% Inh=[1−(Avg.pmoltest compound+standard)/(Avg.pmolstandard)]×100
EC50 values were calculated from an analysis of the concentration-inhibition data using a linear analysis of the data transformed to a log-logit format.
(In general: Changes in cAMP serve as a functional read-out for many G protein-coupled receptors.)

By EC50 is commonly meant the concentration giving half of the maximal effect. As for `Cc1ccccc1-c1ccc(S(=O)(=O)N(CC(=O)NCc2ccc(CN)cc2)C[C@@H](C)c2ccccc2)cc1` [Compound 215], it took 80 nM to reach a half-maximal effect (EC50).
`C[C@@H](CN(CC(=O)NCc1ccc(CN)cc1)S(=O)(=O)c1ccc(-c2ccccc2Cl)cc1)c1ccccc1` [Compound 198]: the EC50 is 40 nM.

Source of the values: patent US6583179B2, “Substituted aminoalkylamide derivatives as antagonists of follicle stimulating hormone” (Ortho-McNeil Pharmaceutical, Inc., priority 1999, dated 2003).
